The source of these data is PubChem BioAssay (NCI).

Values joined by “and” are separate entries in the source; they are usually repeats but may differ in a detail not shown here. Equal values may be shown once.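 Following 48 hours of exposure in 96-well plates, responses at five concentrations were used to interpolate endpoints linearly. GI50 marks 50% less growth. TGI is the concentration that stops growth completely.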 Where only a bound is given, the exact number is not on record here.

What all share (assay): NCI anticancer screen, dose series, 48 h
The subject of assay [1] is SK-MEL-2 melanoma.
Assay [2] relates to NCI-H226 lung.
The subject of assay [3] is HCC-2998 colon.
Assay [4] deals with SR leukemia.
Assay [5] concerns NCI/ADR-RES ovarian.
In assay [6] the test system is DU-145 prostate.
The test system of assay [7] is NCI-H460 lung.
Assay [8] deals with EKVX NSCLC.
For assay [9], the system named is HL-60(TB) leukemia.
Assay [10] relates to T-47D breast.

With `CCC1(O)CN(CCOC)[C@H]2C[C@@H]1C(=O)c1[nH]c3ccccc3c12` (stereo partly specified), the TGI in assay [1], in assay [2], in assay [3], in assay [4], in [5] and in assay [6] was over 100 µM in each case. Also, the TGI in [7], in [8] and in assay [9] was over 100 µM in each case.
In the case of `Cc1c(-c2coc(-c3ccc(Cl)cc3)n2)c(=O)n(-c2ccccc2)n1C`, the TGI in [1], in assay [2], in assay [3], in [4], in [7] and in assay [8] was over 100 µM each time. This compound came in with a TGI in assay [9] of over 100 µM.
As to `Cc1nc(C(N)=S)sc1C(=O)CC(=O)C(=O)Nc1cccc(Cl)c1C`, the TGI in assay [1], in assay [2], in assay [3], in assay [4], in assay [5] and in [7] was over 100 µM each time. Besides, the TGI in [10], in assay [8] and in [9] was over 100 µM throughout.
As to `C/C(=N\O)c1ccc(Nc2c3ccccc3nc3occc23)cc1`, the TGI is 3.5 µM in assay [1]; over 25.9 µM in assay [2]; 6.35 µM in assay [3]; 0.484 µM in assay [5]; over 15.3 µM in assay [6]; 5.77 µM in [7]. Further, the TGI in [10] was 25.7 µM; in [8] it was over 50 µM; in assay [9] it was 6.95 µM.
Turning to `CSc1s[s+]c(SC)c1-c1ccccc1`, the TGI in [3] is 21.5 µM; in assay [5], 42.1 µM; in [6], over 100 µM; in assay [7] it was over 100 µM; in [10] it was over 100 µM; in assay [8] it was 33 µM. In assay [9], this compound displayed a TGI of 60.6 µM.
With `CCOC(=O)C(Cc1c(-c2[nH]c3ccccc3c2CC(NC(=O)CNC(C)=O)C(=O)OCC)[nH]c2ccccc12)NC(=O)CNC(C)=O` (stereo unspecified), the TGI is 39.9 µM in [1]; 47.8 µM in [3]; over 100 µM in assay [4]; over 100 µM in [6]; over 100 µM in assay [7]; over 100 µM in assay [8].
`CCN(CC)c1ccc(C(=C2C=CC(=[N+](CC)CC)C=C2)c2ccccc2)cc1`: the TGI in [1] was found to be 0.0889 µM; in assay [2], 0.0683 µM; in assay [3], 0.135 µM; in assay [4] it was 0.0791 µM; in assay [8] it was 0.581 µM; in [9] it was 0.0318 µM.
With `C=C1C(=O)C[C@@]23CCC[C@@]12CC(O)C3` (stereo partly specified), the TGI in assay [1] was 73.2 µM; in assay [2], 45.8 µM; in [3], over 62.1 µM; in assay [5] it was 42.8 µM; in assay [7], 54.1 µM; in [8], over 73.5 µM. The same compound registered a TGI in [9] of 49.9 µM.
Regarding `COc1cc2c(c(OC)c1OC)-c1ccc(SC)c(=O)cc1[C@@H](NC(=O)c1ccc(C#N)cc1)CC2`, the TGI is 6.58 µM in assay [1]; under 0.01 µM in assay [2]; under 0.01 µM in [3]; over 100 µM in assay [4]; under 0.01 µM in assay [7]; over 100 µM in [8].
As to `CC(=O)c1c(O)c(C)c(O)c2c1OC1=CC(=O)C(C(C)=O)C(=O)C12C` (stereo unspecified), the GI50 was 4.42 µM and 25.4 µM in assay [1]; 6.93 µM and 18.3 µM in assay [2]; 6.08 µM and 13.7 µM in [3]; 4.05 µM and 16.7 µM in assay [5]; 5.29 µM and 14.5 µM in assay [7]; 4.39 µM and 20.3 µM in assay [8]. The GI50 in assay [9] was 3.15 µM and 16.4 µM. The TGI in [1] is 14.5 µM and 50.6 µM; in assay [2], 20.6 µM and 60.2 µM; in assay [3], 17.1 µM and 22.8 µM; in assay [5], 13.5 µM and 55.7 µM; in [7] it was 20.4 µM and 43.7 µM; in [8], 17 µM and 48.2 µM. Further, in assay [9], the TGI is 8.9 µM and 43 µM.
On to `CCOC(=O)Cc1nc2c(=O)[nH]cnc2n1C1OC(COC(C)=O)C(OC(C)=O)C1OC(C)=O` (stereo unspecified), for which the TGI in [1], in assay [2], in [3], in [5], in assay [6] and in [7] was over 100 µM each time. The TGI in assay [10], in assay [8] and in [9] was over 100 µM each time.
On to `O=C(Nc1ccccc1)N1N=C(c2ccccc2)C1c1ccccc1` (stereo unspecified), for which the TGI in [2] was 37.3 µM; in assay [3], over 100 µM; in [5], 82.2 µM; in assay [6] it was over 100 µM; in assay [7], over 100 µM; in assay [10], over 100 µM. For the same compound, the TGI in [8] and in assay [9] was over 100 µM each time.
Turning to `CC(=O)Nc1ccc(C(=O)N2N=C(C)/C(=C/c3cccc(O)c3)C2=O)cc1`, the TGI in assay [1], in assay [2], in assay [3], in [7] and in assay [8] was over 100 µM in each case.
On to `COC1(OC)/C(=C(\N)C=O)NC(C)(C)N1O`, for which the TGI in assay [1], in [2], in [3], in assay [4], in assay [5] and in [6] was over 100 µM in each case. The TGI in [7] is over 100 µM; in assay [8] it was over 100 µM; in assay [9], 55.9 µM.
As for `C=C1c2nc3ccccc3n2C=C(c2ccccc2)N1c1ccc(OC)cc1`, the TGI in assay [1] was over 100 µM; in assay [2], 35.6 µM; in [4] it was over 100 µM; in assay [5], 71.4 µM; in assay [6] it was over 100 µM; in assay [7] it was 24 µM. Besides, the TGI in assay [8] and in assay [9] was over 100 µM in each case.
On to `Clc1ccccc1C1=NN(c2ccccc2)C2c3cc(Br)ccc3OCC12` (stereo unspecified), for which the TGI in assay [1], in assay [3], in assay [7], in assay [8] and in assay [9] was over 100 µM in each case.
On to `Cc1[nH]c(=O)nc(N/N=C/c2ccc(O)cc2)c1C(=O)Nc1ccc(Cl)cc1`, for which the TGI in assay [1], in assay [2], in assay [3], in [4], in [7] and in assay [8] was over 100 µM each time. The same compound showed a TGI in assay [9] of over 100 µM.
In the case of `COc1cc2cc3c4c(cc(OC)c(OC)c4c2cc1OC)CCN3C(=O)OCCBr`, the TGI in assay [1] was over 100 µM; in [2] it was 2.42 µM; in assay [3] it was over 100 µM; in [4], over 100 µM; in assay [7] it was over 100 µM; in assay [8], over 100 µM. In assay [9], this compound registered a TGI of over 100 µM.
Turning to `COC(=O)CCc1ccc2c(c1)CC1(C2)Cc2ccc(CCC(=O)OC)cc2C1`, the TGI in [1] was over 100 µM; in [2], over 100 µM; in assay [3], over 100 µM; in assay [4], 61.5 µM; in assay [5], over 100 µM; in assay [10], over 100 µM. For the same compound, the TGI in assay [8] was over 100 µM; in assay [9], 38.7 µM.
`COc1cc(CC(=O)c2ccc3c(c2)OCO3)cc(OC)c1OC`: the TGI in assay [1], in assay [2], in [3], in [7], in assay [8] and in assay [9] was over 100 µM in each case.
For the compound `CSc1nc(Br)nc2c1ncn2C1CC(Oc2ccc(C)cc2)C(COc2ccc(C)cc2)O1` (stereo unspecified), the TGI in assay [1], in [2], in [3], in assay [5], in assay [6] and in assay [7] was over 100 µM throughout. Moreover, the TGI in assay [10], in assay [8] and in assay [9] was over 100 µM each time.
Consider `Fc1nc(F)nc(-c2c3ccccc3c3n2CCS3)n1`, for which the TGI in assay [1], in [2], in assay [3], in assay [4], in assay [7] and in assay [8] was over 100 µM each time. Moreover, the TGI in assay [9] was over 100 µM.
As for `CN(C)CCNC(=O)c1cccc2c(NC(CS)C(=O)O)c3ccccc3nc12` (stereo unspecified), the TGI is 27.7 µM in assay [1]; 69.2 µM in assay [2]; over 100 µM in [3]; over 100 µM in assay [4]; over 100 µM in assay [5]; over 100 µM in assay [6]. For the same compound, the TGI in assay [7] was determined as 87.6 µM; in assay [8], 39.3 µM; in assay [9], 9.72 µM.
Regarding `COC(=O)C(=O)C(C(=O)C(=O)Nc1ccccc1C(N)=O)c1nc2ccc(C(=O)c3ccccc3)cc2[nH]c1=O` (stereo unspecified), the TGI in assay [1], in assay [2], in assay [3], in [4], in [7] and in assay [8] was over 100 µM throughout.
Consider `CCCCCCCCC(=O)NCCCNCCCNC(=O)CCCCCCCC`, for which the TGI in [1] was 9.05 µM; in assay [2], 35.1 µM; in assay [3] it was 6.67 µM; in assay [4], 5.81 µM; in [7], 6.57 µM; in assay [8] it was 30.1 µM. The TGI in [9] was 3.77 µM.
For `COc1ccccc1OC/C(N=Cc1ccncc1)=N/NC(=O)c1ccncc1`, the TGI in [1], in [2], in assay [3], in [5], in assay [6] and in assay [7] was over 100 µM throughout. Also, the TGI in assay [10], in assay [8] and in assay [9] was over 100 µM in each case.
On to `C[C@@H](C[C@@H](O)[C@H](O)C(C)(C)O)[C@H]1CC=C2[C@]3(C)[C@H](O)C[C@H]4C(C)(C)[C@H](O)CC[C@]4(C)[C@H]3CC[C@@]21C`, for which the TGI in [1] was 34.9 µM; in assay [2], 41.1 µM; in [3], 37.9 µM; in assay [4], over 100 µM; in assay [5] it was 28.1 µM; in assay [6], 30.8 µM. The TGI in assay [7] came out at 30.2 µM; in [8], 26.1 µM; in [9], 40.5 µM.
As for `COc1ccccc1NC(=O)C(=O)C1C(=O)Nc2ccccc2S1=O` (stereo unspecified), the TGI in assay [1], in [2], in assay [3], in [4], in assay [7] and in assay [8] was over 100 µM in each case. Besides, in [9], the TGI was over 100 µM.
Regarding `CCOc1ccc(NC(=S)/N=C/C(C(=O)Nc2ccccc2C)=C(\C)O)cc1`, the TGI in [1], in assay [2], in assay [3], in assay [5], in assay [6] and in assay [7] was over 100 µM each time. For the same compound, the TGI in assay [10], in assay [8] and in assay [9] was over 100 µM in each case.
Take `CSc1nc2c(ncn2C2OCC(O)C(O)C2O)c(=O)[nH]1` (stereo unspecified): the TGI in assay [1], in [2], in assay [3], in [5], in assay [7] and in assay [8] was over 100 µM each time. In assay [9], the TGI was over 100 µM.
Turning to `O=C(CCN1CCCCC1CO)Nc1ccc2c(c1)C(=O)c1ccc(NC(=O)CCN3CCCCC3CO)cc1C2=O` (stereo unspecified), the TGI in assay [1] is 18.8 µM; in assay [2] it was 52.5 µM; in [3] it was 20.8 µM; in assay [4], 68.9 µM; in [7], 24.2 µM; in assay [8], 47 µM. For the same compound, the TGI in assay [9] was 29.8 µM.
Consider `COc1cc(/C=C2\C[C@H]3[C@@H]4CC=C5C[C@@H](N6CCCC6)CC[C@]5(C)[C@H]4CC[C@]3(C)[C@H]2OC(C)=O)cc(OC)c1OC`, for which the TGI in [1] was 31.6 µM; in assay [2], 48.3 µM; in assay [3] it was 10.4 µM; in [5], 30.9 µM; in assay [6] it was 32.9 µM; in assay [10] it was 44.8 µM. Also, the TGI was 27.3 µM in [8] and 65.7 µM in [9].
